Test [1] deals with NAMPT (human, recombinant, C-terminally His-tagged) (Homo sapiens, UniProt P43490). Briefly: Time-Resolved Fluorescence Resonance Energy Transfer (TR-FRET) Binding Assay of NAMPT. The conditions noted are these: without substrates; 6.8 nM NAMPT, 200 nM probe, 3 hours equilibration. As for the experimental part:
Determination of the utility of compounds having Formula (I) as binders to and inhibitors of NAMPT was performed using Time-Resolved Fluorescence Resonance Energy Transfer (TR-FRET) binding assays.
Time-Resolved Fluorescence Resonance Energy Transfer (TR-FRET) Binding Assay of NAMPT
Test compounds were serially diluted (typically 11 half log dilutions) in neat DMSO to 50× final concentrations prior to dilution with assay buffer (50 mM HEPES (NaOH), pH 7.5, 100 mM NaCl, 10 mM MgCl2, 1 mM DTT, 1% Glycerol) to 3× and 6% DMSO. Six μL were transferred to 384-well low-volume plates (Owens Corning #3673). To this, […] of a 1.5× solution containing enzyme, probe and antibody were added. Final concentrations in the 18 μL, reactions were 1× assay buffer, 2% DMSO, 6.8 nM NAMPT (human, recombinant, C-terminally His-tagged), 200 nM probe (a potent nicotinamide-competitive inhibitor conjugated to Oregon Green 488) and 1 nM Tb-anti-His antibody (Invitrogen # PV5895). Reactions were equilibrated at room temperature for 3 hours prior to reading on an Envision multi-label plate reader (Perkin Elmer; Ex=337 nm, Em=520 and 495 nm). Time-resolved FRET ratios (Em520/Em495) were normalized to controls, plotted as a function of compound concentration and fit with the four-parameter logistic equation to determine IC50s.

The target of another test is NAMPT (Homo sapiens, UniProt P43490). Briefly: TR-FRET Binding Assay of NAMPT with PRPP. The settings on record: with 200 μM PRPP and 2.5 mM ATP; 2 nM NAMPT, 2 nM probe, 16 hours equilibration. The protocol: Time-Resolved Fluorescence Resonance Energy Transfer (TR-FRET) Binding Assay of NAMPT with PRPP
NAMPT, sequence (P43490 whole entry): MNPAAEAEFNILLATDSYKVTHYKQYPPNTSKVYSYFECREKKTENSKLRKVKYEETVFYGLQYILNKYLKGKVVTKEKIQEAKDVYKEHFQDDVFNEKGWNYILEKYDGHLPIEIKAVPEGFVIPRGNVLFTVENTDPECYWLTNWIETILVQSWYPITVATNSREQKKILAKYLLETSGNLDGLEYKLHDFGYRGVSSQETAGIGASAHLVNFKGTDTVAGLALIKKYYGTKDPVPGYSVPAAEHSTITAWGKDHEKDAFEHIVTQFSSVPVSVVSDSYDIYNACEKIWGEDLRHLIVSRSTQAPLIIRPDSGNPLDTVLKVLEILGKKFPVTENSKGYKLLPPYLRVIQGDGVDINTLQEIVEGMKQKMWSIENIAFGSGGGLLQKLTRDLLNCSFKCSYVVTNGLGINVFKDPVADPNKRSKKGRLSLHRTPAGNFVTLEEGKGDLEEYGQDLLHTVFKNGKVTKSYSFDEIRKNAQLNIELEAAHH
Compound handling and data processing were identical to the assay in the absence of substrates (above). Final concentrations were 1× assay buffer, 2% DMSO, 2 nM NAMPT, 2 nM probe, 1 nM Tb-anti-His antibody (Invitrogen # PV5895), 200 μM PRPP and 2.5 mM ATP. Reactions were equilibrated for 16 hours prior to measurement to allow for potential enzymatic modification of test compounds.

The next test deals with PC3 cells. Briefly: NAMPT Cell Proliferation Assay. Format: cell-based. The conditions noted are these: Homo sapiens, PC-3, 120 h, 5 days incubation, cell viability by Cell Titer Glo. The method in brief:
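PC3 cells were plated at 500 cells/well in RPMI with 10% heat-inactivated FBS, left to attach overnight, then given compounds in 10-fold dilutions from 10 μM to 1×10^−5 μM. After 5 days at 37° C and 5% CO2, viability was read by luminescence and IC50s came from sigmoidal fits of percent inhibition.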
(In general: In ATP-based viability assays light output follows the ATP content of the culture.)

For orientation: IC50 means the point on the concentration scale where inhibition reaches its midpoint.

NAMPT (human, recombinant, C-terminally His-tagged), sequence (P43490 whole entry): as above

Take `O=C(CC1CCCC1)Nc1ccc(C(=O)NCc2ccc3nccn3c2)cc1` [Example 52, 4-[(cyclopentylacetyl)amino]-N-(imidazo[1,2-a]pyridin-6-ylmethyl)benzamide]: the half-inhibitory concentration (IC50) worked out at 18.6 nM in test [1], 5.79 nM at NAMPT and 4.07 nM in the test on PC3 cells.

Turning to `CC(C)CC(=O)N(Cc1ccc(C#N)cc1)c1ncc(C(=O)Nc2ccc3nccn3c2)s1` [Example 53, 2-[(4-cyanobenzyl)(3-methylbutanoyl)amino]-N-(imidazo[1,2-a]pyridin-6-yl)-1,3-thiazole-5-carboxamide], the half-inhibitory concentration (IC50) in test [1] is 4450 nM; at NAMPT, 14.4 nM; with PC3 cells, 3300 nM.

Turning to `COCCC(=O)N(Cc1ccc(C#N)cc1)c1ncc(C(=O)Nc2ccc3nccn3c2)s1` [Example 54, 2-[(4-cyanobenzyl)(3-methoxypropanoyl)amino]-N-(imidazo[1,2-a]pyridin-6-yl)-1,3-thiazole-5-carboxamide], the IC50 in test [1] amounted to 363 nM; on NAMPT, 2.55 nM; in the test with PC3 cells it was 303 nM.

Regarding `CC(C)CC(=O)N(Cc1ccc(C#N)cc1)c1ncc(C(=O)NCc2ccc3nccn3c2)s1` [Example 55, 2-[(4-cyanobenzyl)(3-methylbutanoyl)amino]-N-(imidazo[1,2-a]pyridin-6-ylmethyl)-1,3-thiazole-5-carboxamide], the figures for the IC50 (in test [1]; on NAMPT; in the test with PC3 cells) were 364 nM, 1.37 nM and 14.6 nM, respectively.

For the compound `COCCC(=O)N(Cc1ccc(C#N)cc1)c1ncc(C(=O)NCc2ccc3nccn3c2)s1` [Example 56, 2-[(4-cyanobenzyl)(3-methoxypropanoyl)amino]-N-(imidazo[1,2-a]pyridin-6-ylmethyl)-1,3-thiazole-5-carboxamide], the IC50 is 158 nM in test [1], 1.07 nM at NAMPT and 8.86 nM with PC3 cells.

As for `CC(C)(C)OC(=O)N1CCC(CCCCNC(=O)Nc2ccc3nccn3c2)CC1` [Example 58, tert-butyl 4-{4-[(imidazo[1,2-a]pyridin-6-ylcarbamoyl)amino]butyl}piperidine-1-carboxylate], the half-inhibitory concentration (IC50) in test [1] amounted to 523 nM; at NAMPT it was 1.43 nM; in the test with PC3 cells it was 52.6 nM.

On to `CC(C)CCNC(=O)c1ccc(NC(=O)NCc2ccc3nccn3c2)cc1` [Example 59, 4-{[(imidazo[1,2-a]pyridin-6-ylmethyl)carbamoyl]amino}-N-(3-methylbutyl)benzamide], for which the IC50 was determined as 222 nM in test [1], 0.695 nM at NAMPT and 143 nM with PC3 cells.

Turning to `O=C(CC1CCCC1)Nc1ccc(NC(=O)NCc2ccc3nccn3c2)cc1` [Example 60, 2-cyclopentyl-N-(4-{[(imidazo[1,2-a]pyridin-6-ylmethyl)carbamoyl]amino}phenyl)acetamide], the IC50 in test [1] amounted to 8.61 nM; at NAMPT, 1.49 nM; in the test with PC3 cells, 9.58 nM.

As to `COCCC(=O)N(CCC(C)C)c1ncc(C(=O)NCc2ccc3nccn3c2)s1` [Example 61, N-(imidazo[1,2-a]pyridin-6-ylmethyl)-2-[(3-methoxypropanoyl)(3-methylbutyl)amino]-1,3-thiazole-5-carboxamide], the IC50 in test [1] came out at 78.2 nM; at NAMPT, 0.549 nM; in the test on PC3 cells, 6.01 nM.

Turning to `CC(C)OCC(=O)N1CCC(CCCCNC(=O)Nc2ccc3nccn3c2)CC1` [Example 62, 1-imidazo[1,2-a]pyridin-6-yl-3-(4-{1-[(propan-2-yloxy)acetyl]piperidin-4-yl}butyl)urea], the values for the half-maximal inhibitory concentration (IC50) (in test [1]; on NAMPT; in the test on PC3 cells) were 250 nM, 0.456 nM and 16.5 nM, respectively.

Turning to `O=C(NCCCCC1CCN(C(=O)C2COCCO2)CC1)Nc1ccc2nccn2c1` (stereo not drawn) [Example 63, 1-{4-[1-(1,4-dioxan-2-ylcarbonyl)piperidin-4-yl]butyl}-3-imidazo[1,2-a]pyridin-6-ylurea], the half-inhibitory concentration (IC50) in test [1] was found to be 636 nM; on NAMPT, 0.283 nM; with PC3 cells it was 16.8 nM.

Turning to `O=C(NCCCCC1CCN(C(=O)CC2CC2)CC1)Nc1ccc2nccn2c1` [Example 64, 1-{4-[1-(cyclopropylacetyl)piperidin-4-yl]butyl}-3-imidazo[1,2-a]pyridin-6-ylurea], the IC50 in test [1] was found to be 518 nM; at NAMPT it was 0.495 nM; in the test with PC3 cells it was 19.8 nM.

As to `O=C(NCCCCC1CCN(C(=O)CCC(F)(F)F)CC1)Nc1ccc2nccn2c1` [Example 65, 1-imidazo[1,2-a]pyridin-6-yl-3-{4-[1-(4,4,4-trifluorobutanoyl)piperidin-4-yl]butyl}urea], the IC50 in test [1] is 773 nM; on NAMPT it was 0.685 nM; with PC3 cells, 65.6 nM.

As for `O=C(NCCCCC1CCN(C(=O)C2CCCC2)CC1)Nc1ccc2nccn2c1` [Example 68, 1-{4-[1-(cyclopentylcarbonyl)piperidin-4-yl]butyl}-3-imidazo[1,2-a]pyridin-6-ylurea], the IC50 in test [1] is 386 nM; at NAMPT, 0.476 nM; in the test on PC3 cells, 53.8 nM.

For the compound `O=C(NCCCCC1CCN(C(=O)C2CCOCC2)CC1)Nc1ccc2nccn2c1` [Example 69, 1-imidazo[1,2-a]pyridin-6-yl-3-{4-[1-(tetrahydro-2H-pyran-4-ylcarbonyl)piperidin-4-yl]butyl}urea], the IC50 in test [1] is 676 nM; at NAMPT, 0.268 nM; with PC3 cells, 16.6 nM.

As to `COCCOCC(=O)N1CCC(CCCCNC(=O)Nc2ccc3nccn3c2)CC1` [Example 70, 1-imidazo[1,2-a]pyridin-6-yl-3-(4-{1-[(2-methoxyethoxy)acetyl]piperidin-4-yl}butyl)urea], the figures for the IC50 (in test [1]; on NAMPT; with PC3 cells) were 710 nM, 0.616 nM and 27.8 nM, respectively.

Regarding `O=C(NCCCCC1CCN(C(=O)CN2CCOCC2)CC1)Nc1ccc2nccn2c1` [Example 71, 1-imidazo[1,2-a]pyridin-6-yl-3-{4-[1-(morpholin-4-ylacetyl)piperidin-4-yl]butyl}urea], the 50% inhibitory concentration (IC50) in test [1] worked out at 754 nM; on NAMPT, 0.348 nM; in the test with PC3 cells, 66.7 nM.

As to `O=C(NCCCCC1CCN(C(=O)C2CCOC2)CC1)Nc1ccc2nccn2c1` (stereo not drawn) [Example 72, 1-imidazo[1,2-a]pyridin-6-yl-3-{4-[1-(tetrahydrofuran-3-ylcarbonyl)piperidin-4-yl]butyl}urea], the values for the IC50 (in test [1]; at NAMPT; in the test on PC3 cells) were 851 nM, 0.536 nM and 65.9 nM, respectively.

`O=C(NCCCCC1CCN(C(=O)CC2CCOC2)CC1)Nc1ccc2nccn2c1` (stereo not drawn) [Example 73, 1-imidazo[1,2-a]pyridin-6-yl-3-{4-[1-(tetrahydrofuran-3-ylacetyl)piperidin-4-yl]butyl}urea]: the IC50 in test [1] stood at 605 nM; at NAMPT, 0.426 nM; with PC3 cells, 59.5 nM.

As for `O=C(NCCCCC1CCN(C(=O)C2CCCO2)CC1)Nc1ccc2nccn2c1` (stereo not drawn) [Example 74, 1-imidazo[1,2-a]pyridin-6-yl-3-{4-[1-(tetrahydrofuran-2-ylcarbonyl)piperidin-4-yl]butyl}urea], the half-maximal inhibitory concentration (IC50) in test [1] stood at 356 nM; on NAMPT it was 0.222 nM; with PC3 cells, 14 nM.

For `CC(C)Cn1cc(-c2ccc(C(=O)NCc3ccc4nccn4c3)s2)cn1` [Example 75, N-(imidazo[1,2-a]pyridin-6-ylmethyl)-5-[1-(2-methylpropyl)-1H-pyrazol-4-yl]thiophene-2-carboxamide], the IC50 in test [1] stood at 12.2 nM; on NAMPT it was 0.445 nM; with PC3 cells, 1.49 nM.

The values above are taken from US9187472B2 (AbbVie Inc., priority 2012, dated 2015).
